The source of these data is US20090270400A1 (priority 2004, published 2009).

SMILES strings stand for the structures. Like-named read-outs stand apart in the source and are kept apart here.

This assay deals with carrageenin-induced hyperalgesia on a rat's paw. As to conditions: in vivo.

In the case of `N[C@@H](CSSC[C@H](N)C(=O)N1CCn2cc(-c3ccccc3)nc2[C@@H]1CC1CCCCC1)C(=O)N1CCn2cc(-c3ccccc3)nc2[C@@H]1CC1CCCCC1` [compound 1, (1R)-1-[({(2R)-2-amino-3-[(8S)-8-(cyclohexylmethyl)-2-phenyl-5,6-dihydroimidazo [1,2-α]pyrazin-7(8H)-yl]-3-oxopropyl}dithio)methyl]-2-[(8S)-8-(cyclohexylmethyl)-2-phenyl-5,6-dihydroimidazo [1,2-α]pyrazin-7(8H)-yl]-2-oxoethylamine], under “iv”, the “dose starting from which the pain threshold following a mechanical stimulus applied to the rats' paws is significantly reduced” value was ≥ 1 mg/kg.

In the case of `CN1CC[C@]23c4c5ccc(O)c4O[C@H]2[C@@H](O)C=C[C@H]3[C@H]1C5` [morphine], the “dose starting from which the pain threshold following a mechanical stimulus applied to the rats' paws is significantly reduced” value (ip) is ≥ 1 mg/kg.
